{"source": "patent US9717681B2", "about": "“Formulations containing substituted imidazole derivatives” (R.P. Scherer Technologies, LLC, priority 2002, dated 2017)", "key": {"[1]": {"experiment": "Protocol B: fipamezole administered as buccal spray to healthy volunteers, pharmacokinetics and tolerability", "type": "in vivo, human", "details": "for Cmax: human plasma", "description": "Fipamezole was administered orally in solution in increasing doses (0.5, 1, 3, 9, 18, 30 and 60 mg) to healthy volunteers (Caucasian males, 18-35 years old, 60-90 kg body weight). Blood samples were taken at intervals for pharmacokinetic evaluation up to 24 hours after each dose. Concentrations of fipamezole in plasma were measured with HPLC-MS/MS. Safety and tolerability were evaluated by standard safety laboratory determinations, ECG recordings, blood pressure and heart rate measurements and by adverse event questioning. The pharmacokinetics were evaluated using the Topfit 2.0 pharmacokinetic program. Cmax and tmax were read from the concentration vs. time curves and the apparent elimination phase half lives from the semi-logarithmic terminal part of the curve. AUC values were calculated both for infinity and up to the last measurable data point. […] The protocol used was substantially as for protocol A, except administration was by buccal spray (0.75, 1.5, 3, 7.5, 15, 30, 60 and 90 mg single doses)."}, "[2]": {"experiment": "Pharmacokinetics of fast dispersing dosage form in dogs", "type": "in vivo, beagle dogs", "description": "In this study fipamezole was administered orally as a fast dispersing tablet (formulation as for Example 3 above) (20 mg/kg) via the buccal cavity to pure bred beagle dogs (1 male and 1 female). Throughout the study (8 days, and 4 days pre-study) the subjects were monitored for viability, changes in behaviour, reaction to treatment and ill-health. In addition, body weight and food consumption were recorded. Blood was collected at 10, 20, 30 and 45 minutes and 1, 1.25, 1.5, 2, 2.5, 3, 4 and 8 hours after administration for plasma level analysis (LC/MS/MS method)."}, "[3]": {"experiment": "Protocol A: fipamezole administered orally in solution to healthy volunteers, pharmacokinetics, safety and tolerability", "type": "in vivo, human", "details": "for Cmax / Tmax / AUC(0-t) / half-life: male, human, plasma; for Cmax: po, human plasma", "description": "Fipamezole was administered orally in solution in increasing doses (0.5, 1, 3, 9, 18, 30 and 60 mg) to healthy volunteers (Caucasian males, 18-35 years old, 60-90 kg body weight). Blood samples were taken at intervals for pharmacokinetic evaluation up to 24 hours after each dose. Concentrations of fipamezole in plasma were measured with HPLC-MS/MS. Safety and tolerability were evaluated by standard safety laboratory determinations, ECG recordings, blood pressure and heart rate measurements and by adverse event questioning. The pharmacokinetics were evaluated using the Topfit 2.0 pharmacokinetic program. Cmax and tmax were read from the concentration vs. time curves and the apparent elimination phase half lives from the semi-logarithmic terminal part of the curve. AUC values were calculated both for infinity and up to the last measurable data point."}, "[4]": {"details": "beagle dogs, fast dispersing tablet (formulation as Example 3), 20 mg/kg via buccal cavity"}}}
{"smiles": "CCC1(c2c[nH]cn2)Cc2ccc(F)cc2C1.Cl", "note": "(centres unmarked) [fipamezole, 4-(2-ethyl-5-fluoro-indan-2-yl)-1H-imidazole, hydrochloride salt]", "values": [{"measurement": "Absorption from the buccal mucosa into systemic circulation", "setting": "[1]", "value": "rapidly absorbed in a dose-dependent manner"}, {"measurement": "Relation between dose and Cmax and AUC0-inf values", "setting": "[1]", "value": "linear correlation"}, {"measurement": "Tolerability", "setting": "[1]; all doses 0.75-90 mg single doses", "value": "well tolerated"}, {"measurement": "Tmax", "setting": "[1]; dose 0.75 mg", "value": 0.72, "unit": "h"}, {"measurement": "Tmax", "setting": "[1]; dose 1.5 mg", "value": 0.72, "unit": "h"}, {"measurement": "Tmax", "setting": "[1]; dose 7.5 mg", "value": 0.72, "unit": "h"}, {"measurement": "Tmax", "setting": "[1]; dose 15 mg", "value": 0.72, "unit": "h"}, {"measurement": "Tmax", "setting": "[1]; dose 30 mg", "value": 0.72, "unit": "h"}, {"measurement": "Cmax", "setting": "[1]; dose 30 mg", "value": 49.23, "unit": "ng/mL"}, {"measurement": "Adverse effects seen after administration", "setting": "[1]; frequently seen after administration", "value": "buccal erythema and whitening"}, {"measurement": "Cmax", "setting": "[1]; male, dose 0.75 mg, read-out: Cmax", "value": 1.53, "unit": "ng/mL"}, {"measurement": "Cmax", "setting": "[1]; male, dose 1.5 mg, read-out: Cmax", "value": 3.13, "unit": "ng/mL"}, {"measurement": "Cmax", "setting": "[1]; male, dose 3 mg, read-out: Cmax", "value": 4.76, "unit": "ng/mL"}, {"measurement": "Cmax", "setting": "[1]; male, dose 7.5 mg, read-out: Cmax", "value": 13, "unit": "ng/mL"}, {"measurement": "Cmax", "setting": "[1]; male, dose 15 mg, read-out: Cmax", "value": 25.9, "unit": "ng/mL"}, {"measurement": "Cmax", "setting": "[1]; male, dose 60 mg, read-out: Cmax", "value": 92.9, "unit": "ng/mL"}, {"measurement": "Cmax", "setting": "[1]; male, dose 90 mg, read-out: Cmax", "value": 172, "unit": "ng/mL"}, {"measurement": "AUC(0-t)", "setting": "[1]; male, human, plasma, dose 0.75 mg", "value": 4.6, "unit": "ng·h/mL"}, {"measurement": "half-life", "setting": "[1]; male, human, plasma, dose 0.75 mg, read-out: t1/2 (converted)", "value": 1.47, "unit": "h"}, {"measurement": "AUC(0-t)", "setting": "[1]; male, human, plasma, dose 1.5 mg", "value": 9.99, "unit": "ng·h/mL"}, {"measurement": "half-life", "setting": "[1]; male, human, plasma, dose 1.5 mg, read-out: t1/2 (converted)", "value": 1.65, "unit": "h"}, {"measurement": "AUC(0-t)", "setting": "[1]; male, human, plasma, dose 3 mg", "value": 15.4, "unit": "ng·h/mL"}, {"measurement": "half-life", "setting": "[1]; male, human, plasma, dose 3 mg, read-out: t1/2 (converted)", "value": 1.6, "unit": "h"}, {"measurement": "Tmax", "setting": "[1]; male, human, plasma, dose 3 mg, read-out: tmax", "value": 0.78, "unit": "h"}, {"measurement": "AUC(0-t)", "setting": "[1]; male, human, plasma, dose 7.5 mg", "value": 40.8, "unit": "ng·h/mL"}, {"measurement": "half-life", "setting": "[1]; male, human, plasma, dose 7.5 mg, read-out: t1/2 (converted)", "value": 1.78, "unit": "h"}, {"measurement": "AUC(0-t)", "setting": "[1]; male, human, plasma, dose 15 mg", "value": 84.1, "unit": "ng·h/mL"}, {"measurement": "half-life", "setting": "[1]; male, human, plasma, dose 15 mg, read-out: t1/2 (converted)", "value": 1.97, "unit": "h"}, {"measurement": "AUC(0-t)", "setting": "[1]; male, human, plasma, dose 30 mg", "value": 157, "unit": "ng·h/mL"}, {"measurement": "half-life", "setting": "[1]; male, human, plasma, dose 30 mg, read-out: t1/2 (converted)", "value": 2.12, "unit": "h"}, {"measurement": "AUC(0-t)", "setting": "[1]; male, human, plasma, dose 60 mg", "value": 231, "unit": "ng·h/mL"}, {"measurement": "half-life", "setting": "[1]; male, human, plasma, dose 60 mg, read-out: t1/2 (converted)", "value": 3, "unit": "h"}, {"measurement": "Tmax", "setting": "[1]; male, human, plasma, dose 60 mg, read-out: tmax", "value": 0.46, "unit": "h"}, {"measurement": "AUC(0-t)", "setting": "[1]; male, human, plasma, dose 90 mg", "value": 467, "unit": "ng·h/mL"}, {"measurement": "half-life", "setting": "[1]; male, human, plasma, dose 90 mg, read-out: t1/2 (converted)", "value": 3.16, "unit": "h"}, {"measurement": "Tmax", "setting": "[1]; male, human, plasma, dose 90 mg, read-out: tmax", "value": 0.53, "unit": "h"}, {"measurement": "half-life", "setting": "[1]; male, human, plasma, range over doses, longer times at larger doses, read-out: Apparent elimination phase half life", "value": "1.2 to 3.5", "unit": "h"}, {"measurement": "Absorption", "setting": "[2]; [4]", "value": "rapidly absorbed"}, {"measurement": "Time to peak plasma concentration", "setting": "[2]; [4]", "value": "≤ 10", "unit": "min"}, {"measurement": "Effect on body weight", "setting": "[2]; beagle dogs, fast dispersing tablet, 20 mg/kg", "value": "no adverse effect"}, {"measurement": "Food consumption on the day of administration", "setting": "[2]; beagle dogs, fast dispersing tablet, 20 mg/kg, probably due to frequent blood collection", "value": "low"}, {"measurement": "Adverse clinical signs", "setting": "[2]; female beagle dog, fast dispersing tablet (formulation as Example 3), 20 mg/kg via buccal cavity", "value": "No adverse clinical signs"}, {"measurement": "Adverse clinical signs", "setting": "[2]; male beagle dog, fast dispersing tablet (formulation as Example 3), 20 mg/kg via buccal cavity", "value": "elevated pulse rate"}, {"measurement": "Cmax", "setting": "[3]; 0.5 mg", "value": 0.05, "unit": "ng/mL"}, {"measurement": "Cmax", "setting": "[3]; 1 mg", "value": 0.08, "unit": "ng/mL"}, {"measurement": "Cmax", "setting": "[3]; 3 mg", "value": 0.23, "unit": "ng/mL"}, {"measurement": "Cmax", "setting": "[3]; 9 mg", "value": 1.09, "unit": "ng/mL"}, {"measurement": "Cmax", "setting": "[3]; 18 mg", "value": 1.31, "unit": "ng/mL"}, {"measurement": "Cmax", "setting": "[3]; 60 mg", "value": "~2", "unit": "ng/mL"}, {"measurement": "Tmax", "setting": "[3]; oral solution, dose 0.5 mg", "value": 0.88, "unit": "h"}, {"measurement": "AUC(0-t)", "setting": "[3]; oral solution, dose 1 mg", "value": 0.1, "unit": "ng·h/mL"}, {"measurement": "Tmax", "setting": "[3]; oral solution, dose 1 mg", "value": 0.83, "unit": "h"}, {"measurement": "AUC(0-t)", "setting": "[3]; oral solution, dose 3 mg", "value": 0.3, "unit": "ng·h/mL"}, {"measurement": "Tmax", "setting": "[3]; oral solution, dose 3 mg", "value": 0.67, "unit": "h"}, {"measurement": "AUC(0-t)", "setting": "[3]; oral solution, dose 9 mg", "value": 4.2, "unit": "ng·h/mL"}, {"measurement": "Tmax", "setting": "[3]; oral solution, dose 9 mg", "value": 0.67, "unit": "h"}, {"measurement": "half-life", "setting": "[3]; oral solution, dose 9 mg", "value": 2.2, "unit": "h"}, {"measurement": "AUC(0-t)", "setting": "[3]; oral solution, dose 18 mg", "value": 6, "unit": "ng·h/mL"}, {"measurement": "Tmax", "setting": "[3]; oral solution, dose 18 mg", "value": 0.83, "unit": "h"}, {"measurement": "half-life", "setting": "[3]; oral solution, dose 18 mg", "value": 2.4, "unit": "h"}, {"measurement": "AUC(0-t)", "setting": "[3]; oral solution, dose 30 mg", "value": 6.8, "unit": "ng·h/mL"}, {"measurement": "Tmax", "setting": "[3]; oral solution, dose 30 mg", "value": 1.25, "unit": "h"}, {"measurement": "half-life", "setting": "[3]; oral solution, dose 30 mg", "value": 3.1, "unit": "h"}, {"measurement": "AUC(0-t)", "setting": "[3]; oral solution, dose 60 mg", "value": 8.2, "unit": "ng·h/mL"}, {"measurement": "Tmax", "setting": "[3]; oral solution, dose 60 mg", "value": 1.06, "unit": "h"}, {"measurement": "half-life", "setting": "[3]; oral solution, dose 60 mg", "value": 1.8, "unit": "h"}, {"measurement": "Level of absorption vs dose", "setting": "[3]; oral solution, 0.5-60 mg", "value": "not dose-proportional"}, {"measurement": "Safety and tolerability", "setting": "[3]; oral solution, 0.5-60 mg, healthy volunteers", "value": "safe and well tolerated"}]}
